Measured values taken from paper PMC8374649, “IBI362 (LY3305677), a weekly-dose GLP-1 and glucagon receptor dual agonist, in Chinese adults with overweight or obesity: A randomised, placebo-controlled, multiple ascending dose phase 1b study” (EClinicalMedicine, 2021).
Read-outs that look alike come from different tables or passages of the source.

Tests used:
[1] = Pharmacokinetics, non-compartmental, plasma concentration after subcutaneous dosing; assay type: in vivo; conditions: human; for Cmax / AUC(0-t): n = 8, geometric mean (CV%); for AUC(0-t): read-out: AUC0–168h
Method: (§1) Pharmacokinetic parameters were assessed on pre-defined visits in all participants who received IBI362. […] Standard non-compartmental pharmacokinetics methods were used to analyze IBI362 plasma concentration data using Pkanalix 2020R1 (Lixoft, Antony, France). The values for Cmax and Tmax were taken directly from the observed plasma concentration data. The terminal-phase disposition rate constant (λz) was estimated using a log-linear regression of the concentration data in the terminal disposition phase, and T1/2 was estimated as ln(2)/λz. Immunogenicity was assessed by measures of anti-drug antibody-positive responses.
Safety analyses were done in the safety population (defined as all participants who received at least one dose of the study treatment). Pharmacokinetic analyses were done in the pharmacokinetic population (defined as all participants who received at least one dose of IBI362 and had at least one valid plasma concentration assessment). Pharmacodynamic analyses were done in the pharmacodynamic population (defined as all participants who received at least one dose of the study treatment and had baseline and at least one valid assessment). Efficacy analyses were done in the efficacy population (defined as all participants who received at least one dose of the study treatment and had at least one post-baseline assessment).

[2] = Immunogenicity, anti-drug antibody-positive responses; assay type: in vivo, human
Method: as §1

[3] = 1 mg, after first sc dose, 1.0–2.0–3.0 mg regimen
[4] = 1.5 mg, after first sc dose, 1.5–3.0–4.5 mg regimen
[5] = 2 mg, after first sc dose, 2.0–4.0–6.0 mg regimen

`CC(C)C[C@H](NC(=O)[C@H](CC(C)C)NC(=O)[C@H](Cc1c[nH]c2ccccc12)NC(=O)[C@H](CCC(=O)O)NC(=O)[C@@H](NC(=O)[C@H](Cc1ccccc1)NC(=O)[C@H](CCC(=O)O)NC(=O)[C@H](CCCCNC(=O)COCCOCCNC(=O)COCCOCCNC(=O)CC[C@H](NC(=O)CCCCCCCCCCCCCCCCCCC(=O)O)C(=O)O)NC(=O)[C@H](C)NC(=O)[C@H](CCCCN)NC(=O)[C@H](CCCCN)NC(=O)[C@H](CCC(=O)O)NC(=O)[C@H](CC(=O)O)NC(=O)[C@H](CC(C)C)NC(=O)[C@H](Cc1ccc(O)cc1)NC(=O)[C@H](CCCCN)NC(=O)[C@H](CO)NC(=O)[C@H](Cc1ccc(O)cc1)NC(=O)[C@H](CC(=O)O)NC(=O)[C@H](CO)NC(=O)[C@@H](NC(=O)[C@H](Cc1ccccc1)NC(=O)[C@@H](NC(=O)CNC(=O)[C@H](CCC(N)=O)NC(=O)C(C)(C)NC(=O)[C@@H](N)Cc1c[nH]cn1)[C@@H](C)O)[C@@H](C)O)C(C)C)C(=O)N[C@@H](CCC(=O)O)C(=O)NCC(=O)NCC(=O)N1CCC[C@H]1C(=O)N[C@@H](CO)C(=O)N[C@@H](CO)C(=O)NCC(N)=O` [IBI362] gave a Cmax [1, 3] of 82.4 ng/mL, an AUC(0-t) [1, 3] of 12500 ng·h/mL and a Tmax ([1]; 1 mg, after first sc dose, 1.0–2.0–3.0 mg regimen, n = 8, median (range), read-out: Tmax) of 71.9 h. For the same compound, the Cmax [1, 4] was 99.6 ng/mL, the AUC(0-t) [1, 4] was 15600 ng·h/mL and the Tmax ([1]; 1.5 mg, after first sc dose, 1.5–3.0–4.5 mg regimen, n = 8, median (range), read-out: Tmax) was 84.5 h. The Cmax [1, 5] was 134 ng/mL, the AUC(0-t) [1, 5] was 19200 ng·h/mL and the Tmax ([1]; 2 mg, after first sc dose, 2.0–4.0–6.0 mg regimen, n = 8, median (range), read-out: Tmax) was 71.9 h. The Tmax ([1]; first sc doses, all cohorts, read-out: median Tmax) was 72 h, the “Participants who developed anti-IBI362 antibody” value ([2]; 3.0 mg cohort) was “One” and the “Participants who developed anti-IBI362 antibody” value ([2]; 4.5 mg cohort) was “one”.
